Assays:
rat mGlu2 receptor = biological target: T1, rat mGlu2 receptor (Rattus norvegicus, UniProt P31421); test: [3H]-LY354740 binding on mGlu2 transfected CHO cell membranes; conditions: 10 nM [3H]-LY354740, membranes of CHO cells transfected with rat mGlu2, room temperature, 1 hour
T1 construct: expressed in transfected cells; membranes prepared
Description: [^3H]-LY354740 Binding on mGlu2 Transfected CHO Cell Membranes. Transfection and Cell Culture
cDNA encoding the rat mGlu2 receptor protein in pBluescript II was subcloned into the eukaryotic expression vector pcDNA I-amp from Invitrogen Ltd (Paisley, UK). This vector construct (pcD1mGR2) was co-transfected with a psvNeo plasmid encoding the gene for neomycin resistance, into CHO cells by a modified calcium phosphate method described by Chen & Okayama (1988). The cells were maintained in Dulbecco's Modified Eagle medium with reduced L-glutamine (2 mM final concentration) and 10% dialysed foetal calf serum from Gibco-Invitrogen (Carlsbad, Calif., USA). Selection was made in the presence of G-418 (1000 ug/ml final) and […]. Clones were identified by reverse transcription of 5 μg total RNA, followed by PCR mGlu2 receptor specific primers 5′-[…]-3′ and 5′-[…]-3′in 60 mM Tris HCl (pH 10), 15 mM (NH4)2SO4, 2 mM MgCl2, 25 units/ml Taq Polymerase with 30 cycles annealing at 60° C. for 1 min., extention at 72° C. for 30 s, and 1 min. 95° C. denaturation.
Cells, cultured as above, were harvested and washed three times with cold PBS and frozen at −80° C. The pellet was resuspended in cold 20 mM HEPES-NaOH buffer containing 10 mM EDTA (pH 7.4), and homogenised with a polytron (Kinematica, AG, Littau, Switzerland) for 10 s at 10 000 rpm. After centrifugation for 30 min. at 4° C., the pellet was washed once with the same buffer, and once with cold 20 mM HEPES-NaOH buffer containing 0.1 mM EDTA, (pH 7.4). Protein content was measured using the micro BCA method from Pierce-Perbio (Rockford, Ill., USA) using bovine serum albumin as standard.
After thawing, the membranes were resuspended in cold 50 mM Tris-HCl buffer containing 2 mM MgCl2 (pH 7) (binding buffer). The final concentration of the membranes in the assays was 25 μg protein/ml. Inhibition experiments were performed with membranes incubated with 10 nM [^3H]-LY354740 at room temperature, for 1 hour, in presence of various concentrations of the compound to be tested. Following the incubations, membranes were filtered onto Whatmann GF/B glass fiber filters and washed 5 times with cold binding buffer. Non specific binding was measured in the presence of 10 μM DCG IV. After transfer of the filters into plastic vials containing 10 ml of Ultima-gold scintillation fluid from Perkin-Elmer(Boston, Mass., USA), the radioactivity was measured by liquid scintillation in a Tri-Carb 2500 TR counter (Packard, Zürich, Switzerland).
The inhibition curves were fitted with a four parameter logistic equation giving IC50 values, and Hill coefficients.

T1 sequence (P31421 19-872): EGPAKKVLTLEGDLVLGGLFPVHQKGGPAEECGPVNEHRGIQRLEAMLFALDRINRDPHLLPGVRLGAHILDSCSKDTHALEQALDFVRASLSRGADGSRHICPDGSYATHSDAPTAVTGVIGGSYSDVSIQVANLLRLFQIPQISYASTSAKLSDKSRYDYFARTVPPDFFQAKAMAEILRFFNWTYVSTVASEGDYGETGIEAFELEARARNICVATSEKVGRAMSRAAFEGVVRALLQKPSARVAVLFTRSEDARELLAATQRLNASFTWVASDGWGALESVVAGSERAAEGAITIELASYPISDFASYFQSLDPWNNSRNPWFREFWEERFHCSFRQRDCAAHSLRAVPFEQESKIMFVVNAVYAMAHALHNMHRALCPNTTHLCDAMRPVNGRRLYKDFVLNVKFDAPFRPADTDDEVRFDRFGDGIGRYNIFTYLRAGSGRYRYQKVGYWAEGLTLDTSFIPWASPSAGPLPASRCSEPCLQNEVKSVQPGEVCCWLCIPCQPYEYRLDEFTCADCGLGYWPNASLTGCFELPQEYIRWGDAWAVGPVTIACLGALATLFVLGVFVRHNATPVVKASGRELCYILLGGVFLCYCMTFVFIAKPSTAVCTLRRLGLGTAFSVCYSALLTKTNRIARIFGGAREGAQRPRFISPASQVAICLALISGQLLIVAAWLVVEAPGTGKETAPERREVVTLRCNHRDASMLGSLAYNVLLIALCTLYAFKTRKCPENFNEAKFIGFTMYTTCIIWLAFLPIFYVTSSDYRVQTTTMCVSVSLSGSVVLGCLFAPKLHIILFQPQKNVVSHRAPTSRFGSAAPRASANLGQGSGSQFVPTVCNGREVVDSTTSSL

| Ki (rat mGlu2 receptor) [nM] | melting point [°C] | SMILES |
| --- | --- | --- |
| 142 | 284 | NS(=O)(=O)c1nnc(NC(=O)c2cnn3c(C(F)F)cc(-c4ccc(C(F)(F)F)cc4)nc23)s1 [Example 3, 7-Difluoromethyl-5-(4-trifluoromethyl-phenyl)-pyrazolo[1,5-a]pyrimidine-3-carboxylic acid (5-sulfamoyl-[1,3,4]thiadiazol-2-yl)-amide] |
| 27 | 217 | O=C(Nc1cc(S(=O)(=O)N(CCO)CCO)sc1Cl)c1cnn2c(C(F)(F)F)cc(-c3ccc(C(F)(F)F)cc3)nc12 [Example 35, 7-Trifluoromethyl-5-(4-trifluoromethyl-phenyl)-pyrazolo[1,5-a]pyrimidine-3-carboxylic acid {5-[bis-(2-hydroxy-ethyl)-sulfamoyl]-2-chloro-thiophen-3-yl}-amide] |
| 2.5 | 303 | Cc1nc(NC(=O)c2cnn3c(C(F)(F)F)cc(-c4ccc(C(F)(F)F)cc4)nc23)sc1S(N)(=O)=O [Example 8, 7-Trifluoromethyl-5-(4-trifluoromethyl-phenyl)-pyrazolo[1,5-a]pyrimidine-3-carboxylic acid (4-methyl-5-sulfamoyl-thiazol-2-yl)-amide] |
| 6.9 | 275 | NS(=O)(=O)c1cc(NC(=O)c2cnn3c(C(F)(F)F)cc(-c4ccc(C(F)(F)F)cc4)nc23)c(Cl)s1 [Example 2, 7-Trifluoromethyl-5-(4-trifluoromethyl-phenyl)-pyrazolo[1,5-a]pyrimidine-3-carboxylic acid (2-chloro-5-sulfamoyl-thiophen-3-yl)-amide] |
